Test results reported in ChEMBL document CHEMBL1129129, “Modelisation, synthesis and antiviral evaluation of new 2,3-disubstituted thiazolidinone nucleoside analogues” (Bioorg Med Chem Lett, 1996).

How the values were obtained:
Anas sp. [1] = experiment: Compound was tested for its cytotoxicity against duck hepatitis B virus in duck fetal hepatocytes culture; assay type: functional; conditions: Hepatocyte
Anas sp. [2] = experiment: Compound was tested for its antiviral activity against hepatitis B virus(DHBV) in duck fetal hepatocytes culture; assay type: functional, organism-based; conditions: Hepatocyte
MT4 [3] = experiment: Compound was tested for its cytotoxicity against HIV-1 infected MT-4 cell lines; assay type: functional; conditions: Homo sapiens
MT4 [4] = experiment: Compound was tested to inhibit HIV-1 replication in MT-4 cell lines; assay type: functional, cell-based; conditions: Homo sapiens
MT4 [5] = experiment: Compound was tested to inhibit HIV-1 replication in MT-4 cell lines; value may range from 5 - 15; assay type: functional, cell-based; conditions: Homo sapiens
MT4 [6] = experiment: Compound was tested to inhibit HIV-1 replication in MT-4 cell lines; value may range from 1 - 10; assay type: functional, cell-based; conditions: Homo sapiens

Row | Structure (SMILES) | CC50 (Anas sp. [1]) [µM] | IC50 (Anas sp. [2]) [µM] | CC50 (MT4 [3]) [µM] | IC50 (MT4 [4]) [µM] | IC50 (MT4 [5]) [µM] | IC50 (MT4 [6]) [µM]
1 | Nc1ccn(CCN2C(=O)CSC2CO)c(=O)n1 (stereo not drawn) | 100 | 2 | ~300 | ≥ 300 | – | –
2 | Cc1cn(CCN2C(=O)CSC2CO)c(=O)[nH]c1=O (stereo not drawn) | ≥ 200 | 2 | 100 | – | 15 | –
3 | Nc1nc(=O)n(CCN2C(=O)CSC2CO)cc1F (stereo not drawn) | 150 | 2 | 100 | – | – | 10
4 | Nc1nc(=O)n(CCN2C(=O)CSC2COC(=O)c2ccccc2)cc1F (stereo not drawn) | – | – | 100 | – | – | 10
5 | Nc1ncnc2c1ncn2CCN1C(=O)CSC1CO (stereo not drawn) | 200 | 2 | 100 | – | – | 10
6 | Nc1ccn(CCN2C(=O)CSC2COC(=O)c2ccccc2)c(=O)n1 (stereo not drawn) | – | – | ~100 | ≥ 100 | – | –
7 | Nc1ccn(C2CS[C@H](CO)O2)c(=O)n1 (single isomer, unassigned) [LAMIVUDINE] | > 400 | 0.1 | 100 | – | – | –
